According to patent US9499517B2, “Substituted prolines / piperidines as orexin receptor antagonists” (Eolas Therapeutics, Inc., priority 2012, dated 2016):
Read-outs that look alike come from different tables or passages of the source. Blank lines part the entries; values can stand above or below the compound they belong to.

Columns and labels:
CYP3A4 = molecular target: T1, CYP3A4 (Homo sapiens, UniProt P08684); assay: Cytochrome P450 inhibition assay: midazolam hydroxylation to 1'-hydroxymidazolam in human liver microsomes, with or without 30 min pre-incubation; format: in vitro ADME; details: human, human liver microsomes, probe midazolam, 10 μM test compound; for inhibition at 30 min, 10 µM: 30 min (time-dependent inhibition), read-out: CYP3A4 % inh (10 μM, 30 min); for inhibition at 5 min, 10 µM: read-out: CYP3A4 % inh (10 μM, 5 min)
T1 construct: pre-incubated with human liver microsomes and NADPH for 30 minutes; from tissue; host or cells: human liver microsomes
Procedure: (§1) Cytochrome P450 Inhibition Assay.
(§2) Compounds were tested for the potential to induce drug-drug interactions by inhibition of the cytochrome P450 3A4 isoform. The assay evaluated the metabolism of a specific marker substrate (CYP3A4, midazolam hydroxylation to 1′-hydroxymidazolam) in the presence or absence of 10 μM test compound. […] A specific inhibitor for the isoform was included in each run to validate the system. An appropriate positive control inhibitor was used. Mechanism-based inhibition was investigated where warranted using a classical method. […] The percent inhibition of the pre-incubated and non-pre-incubated samples were compared as a preliminary evaluation of time-dependent inhibition.

[1] = molecular target: T2, cytochrome P450 3A4 isoform (Homo sapiens, UniProt P08684); assay: as above; format: in vitro ADME; details: relative to Examples 112 and 114 (Table 4)
T2 construct: pre-incubated with human liver microsomes and NADPH for 30 minutes; from tissue; host or cells: human liver microsomes
Procedure: as §1, §2

OX1 = molecular target: T3, OX1 (Homo sapiens, UniProt O43613); assay: Orexin receptor cell-based functional assay: [Ca2+]i by FLIPR in CHO-OX1 cells, antagonism of EC90 of OXA
T3 construct: expressed in transfected cells; host or cells: CHO (CHO-OX1, kept under G418 or Blasticidin selection)
T3 sequence (O43613 1-425): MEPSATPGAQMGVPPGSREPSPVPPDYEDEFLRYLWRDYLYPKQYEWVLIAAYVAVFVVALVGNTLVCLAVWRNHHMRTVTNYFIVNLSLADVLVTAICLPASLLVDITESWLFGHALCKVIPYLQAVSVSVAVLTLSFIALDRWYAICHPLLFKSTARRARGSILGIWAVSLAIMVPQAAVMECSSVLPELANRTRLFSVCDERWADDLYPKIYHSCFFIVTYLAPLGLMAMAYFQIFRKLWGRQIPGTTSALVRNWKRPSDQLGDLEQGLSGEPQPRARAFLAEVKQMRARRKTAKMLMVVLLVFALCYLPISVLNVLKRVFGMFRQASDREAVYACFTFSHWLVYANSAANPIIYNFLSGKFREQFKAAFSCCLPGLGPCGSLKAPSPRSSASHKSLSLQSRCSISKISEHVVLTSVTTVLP
Procedure: Orexin Receptor Cell-based Functional Assay.
Measurement of [Ca^2+]i using a FLIPR: CHO—OX1 or CHO—OX2 cells are seeded into black-walled clear-base 384-well plates (Costar) at a density of 20,000 cells per well in F12-K medium supplemented with 10% FBS and selection antibiotic (500 ug/ml G418 or 15 ug/ml Blasticidin) and cultured overnight. The cells are incubated with equal volume of calcium 4 loading buffer (Molecular Devices, Inc.) containing 2.5 mM probenecid at 37° C. for 30 min, followed by putative OX1 or OX2 receptor antagonists (dose-range 0.1 nM-10 μM) for another 30 min.

mice [2] = assay: Nicotine self-administration assay (IV nicotine) in WT, Hcrt-R1 KO and virally-rescued mice; format: in vivo
From the text: Nicotine Self-Administration Assay
Development of Animal Subjects.
To generate Hcrt-R1^+/+ and […] mice, breeding pairs of male and female Hcrt-R1^+/− mice that were backcrossed >10 generations on a C57BL/6 background were obtained from Jackson Laboratory (Bar Harbor, Me.). For all experiments, mice weighing 25-35 g were housed in groups of 2-3 per cage, in a temperature-controlled vivarium under a reversed 12-h light/dark cycle (lights off at 8 am). Food and water were provided ad libitum until behavioral training commenced. During training, mice were food-restricted to maintain ˜85-90% of their free-feeding body weight. Behavioral testing occurred during the dark portion of the light/dark cycle between the hours of 9 am-1 pm, during the early portion of the dark phase of the cycle. All procedures were conducted in strict adherence with the National Institutes of Health Guide for the Care and Use of Laboratory Animals and were approved by the Institutional Animal Care and Use Committee of The Scripps Research Institute.
Mice were anesthetized by inhalation of 1-3% isoflurane in oxygen and silastic catheters were inserted into the jugular veins. […] During the TO period, responding on the lever was recorded but without scheduled consequence. […]

mice [3] = assay: Food self-administration (lever press for food pellets) in WT and Hcrt-R1 KO mice; format: in vivo; details: systemic administration 30 min prior to the session
[4] = Table 2A, bioactivity with respect to OX1, CHO-OX1 cells, FLIPR, read-out: OX1

T1 sequence (P08684 whole entry): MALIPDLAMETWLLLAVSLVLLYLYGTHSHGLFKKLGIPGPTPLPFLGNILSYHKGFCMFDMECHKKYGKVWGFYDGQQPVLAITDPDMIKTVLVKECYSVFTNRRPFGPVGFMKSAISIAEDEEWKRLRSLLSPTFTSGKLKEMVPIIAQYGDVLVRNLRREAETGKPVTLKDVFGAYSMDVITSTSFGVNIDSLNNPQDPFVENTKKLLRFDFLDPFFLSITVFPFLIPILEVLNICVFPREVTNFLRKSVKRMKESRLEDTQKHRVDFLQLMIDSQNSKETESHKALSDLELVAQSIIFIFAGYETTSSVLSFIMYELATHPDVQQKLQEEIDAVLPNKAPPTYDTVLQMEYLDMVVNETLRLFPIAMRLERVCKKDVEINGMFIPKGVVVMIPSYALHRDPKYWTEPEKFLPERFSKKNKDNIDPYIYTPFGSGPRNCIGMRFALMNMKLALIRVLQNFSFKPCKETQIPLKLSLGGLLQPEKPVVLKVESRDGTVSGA
T2 sequence (P08684 whole entry, canonical isoform): as the sequence (P08684 whole entry) above

SMILES: C[C@@H]1CCCN(C(=O)c2c(F)cccc2-n2nccn2)[C@@H]1CNc1ncc(C(F)(F)F)cn1 [Compound A259, (2-fluoro-6-(2H-1,2,3-triazol-2-yl)phenyl)((2S,3R)-3-methyl-2-(((5-(trifluoromethyl)pyrimidin-2-yl)amino)methyl)piperidin-1-yl)methanone]
inhibition at 30 min, 10 µM (CYP3A4): 41%

SMILES: Cc1ccc(-n2nccn2)c(C(=O)N2CCC[C@@H](C)[C@H]2CNc2ccc(C(F)(F)F)cn2)c1 (racemic) [Example 114, rac-((2S,3R)-3-methyl-2-(((5-(trifluoromethyl)pyridin-2-yl)amino)methyl)piperidin-1-yl)(5-methyl-2-(2H-1,2,3-triazol-2-yl)phenyl)methanone]
inhibition at 5 min, 10 µM (CYP3A4): 78% | inhibition at 30 min, 10 µM (CYP3A4): 93%

SMILES: C[C@@H]1CCCN(C(=O)c2cc(F)ccc2-c2ncccn2)[C@@H]1CNc1ncc(C(F)(F)F)cn1 [Compound A227, (5-Fluoro-2-(pyrimidin-2-yl)phenyl)((2S,3R)-3-methyl-2-(((5-(trifluoromethyl)pyrimidin-2-yl)amino)methyl)piperidin-1-yl)methanone]
inhibition at 30 min, 10 µM (CYP3A4): 58%

SMILES: CC(=O)NC1CCC(CNC(=O)c2cccc3cccnc23)N(C(=O)c2ccccc2-c2ccccc2)C1 (racemic) [Example 43, rac-N-((5-acetamido-1-(biphenylcarbonyl)piperidin-2-yl)methyl)quinoline-8-carboxamide]
IC50 (OX1; Table 2, IC50 bioactivity, CHO-OX1 cells, FLIPR, read-out: OX1): 2000 nM

SMILES: CC1(C)OC[C@H](NC(=O)Nc2ccc(Br)cc2Br)[C@H](c2ccccc2)O1 [JNJ 10397049]
nicotine self-administration (SA) (mice [2]; KO mice): marginal decrease in nicotine SA | nicotine self-administration (SA) (mice [2]; doses 0, 5 and 10 mg/kg, WT mice): no effect on nicotine SA | food self-administration (SA) (mice [3]): no effect on SA of food pellets

SMILES: Cc1ccc(-c2ncccn2)c(C(=O)N2CCC[C@@H](C)[C@H]2CNc2ccc(C(F)(F)F)cn2)c1 (racemic) [Example 112, rac-((2S,3R)-3-methyl-2-(((5-(trifluoromethyl)pyridin-2-yl)amino)methyl)piperidin-1-yl)(5-methyl-2-(pyrimidin-2-yl)phenyl)methanone]
inhibition at 5 min, 10 µM (CYP3A4): 72% | inhibition at 30 min, 10 µM (CYP3A4): 94% | IC50 (OX1; Table 4, read-out: OX1 IC50): 42 nM

SMILES: Cc1ccc(-n2nccn2)c(C(=O)N2CCC[C@@H](C)[C@H]2CNc2nnc(C(F)(F)F)s2)c1 [Example A102, ((2S,3R)-3-Methyl-2-(((5-(trifluoromethyl)-1,3,4-thiadiazol-2-yl)amino)methyl)piperidin-1-yl)(5-methyl-2-(2H-1,2,3-triazol-2-yl)phenyl)methanone]
IC50 (OX1; [4]): 61 nM

SMILES: Cc1nc(C(=O)N2CCC[C@@H](C)[C@H]2CNc2ccc(C(F)(F)F)cn2)c(-c2ccc(F)cc2)s1 (racemic) [Example 11, rac-(5-(4-fluorophenyl)-2-methylthiazol-4-yl)((2S,3R)-3-methyl-2-(((5-(trifluoromethyl)pyridin-2-yl)amino)methyl)piperidin-1-yl)methanone]
food self-administration (SA) (mice [3]): no effect on food SA

The remaining lines, values ahead:

inhibition of CYP3A4 [1]: reduced inhibition of CYP3A4 | inhibition at 30 min, 10 µM (CYP3A4): 52%
SMILES: C[C@@H]1CCCN(C(=O)c2cc(F)ccc2-n2nccn2)[C@@H]1CNc1ncc(C(F)(F)F)cn1 [Example A207, (5-Fluoro-2-(2H-1,2,3-triazol-2-yl)phenyl)((2S,3R)-3-methyl-2-(((5-(trifluoromethyl)pyrimidin-2-yl)amino)methyl)piperidin-1-yl)methanone]

IC50 (OX1; [4]): 100 nM
SMILES: Cc1ccc(-n2nccn2)c(C(=O)N2CCC[C@@H](C)[C@H]2CNc2ncc(C#N)cc2F)n1 [Example A193, 5-Fluoro-6-((((2S,3R)-3-methyl-1-(6-methyl-3-(2H-1,2,3-triazol-2-yl)picolinoyl)piperidin-2-yl)methyl)amino)nicotinonitrile]

IC50 (OX1; Table 5, read-out: OX1 IC50): 13 nM
SMILES: Cc1nc(C(=O)N2CCCCC2CNc2ncc(C(F)(F)F)cn2)c(-c2ccc(F)cc2)s1 (centres unmarked) [SR-12376, reference compound]

inhibition of CYP3A4 [1]: reduced inhibition of CYP3A4 | inhibition at 30 min, 10 µM (CYP3A4): 59%
SMILES: C[C@@H]1CCCN(C(=O)c2cc(Cl)ccc2-c2ncccn2)[C@@H]1CNc1ncc(C(F)(F)F)cn1 [Example A201, (5-Chloro-2-(pyrimidin-2-yl)phenyl)((2S,3R)-3-methyl-2-(((5-(trifluoromethyl)pyrimidin-2-yl)amino)methyl)piperidin-1-yl)methanone]

IC50 (OX1; Table 5, read-out: OX1 IC50): 137 nM
SMILES: Cc1nc(C(=O)N2CCCC(C)(C)C2CNc2ncc(C(F)(F)F)cn2)c(-c2ccc(F)cc2)s1 (centres unmarked) [SR-12364, reference compound]
